Measured values taken from patent US8178506B2, “Oligomeric compounds and compositions for use in modulation of small non-coding RNAs” (Regulus Therapeutics Inc., priority 2003, dated 2012).
“Also recorded” adds a separate entry of the source. In the oligonucleotide strings, read from the 5' end, every base follows the letter of its sugar. An asterisk marks phosphorothioate; unmarked linkages are phosphodiester. Other units and linkages are bracketed, terminal groups are in braces. A string of capitals states the bases alone. e = 2'-O-(2-methoxyethyl) (MOE); [5mC] = 5-methylcytosine

How the values were obtained:
Assay type in all cases: cell-based, human
HepG2 cells = assay: Insulin signaling assay in HepG2 cells, marker genes taken together; conditions: for expression of the IGFBP-1, PEPCK-c and follistatin marker genes: 100 nM
mir-15a pri-miRNA = mir-15a pri-miRNA expression in T47D cells (real-time RT-PCR); conditions: 100 nM
Text: The gapmer oligomeric compounds targeting the mir-15b and mir-15-a-1 mature miRNAs described above were also transfected into T47D cells according to standard procedures. In addition, uniform 2′-MOE and 2′-MOE gapmer oligomeric compounds targeting the mature mir-15a-1 and mir-15b miRNAs were also transfected into T47D cells, for analysis of their effects on mir-15a-1 and mir-15b pri-miRNA levels. The oligomeric compounds ISIS Number 327927 (SEQ ID NO: 345), a uniform 2′-MOE compound and ISIS Number 345391 (SEQ ID NO: 345), a 2′-MOE 5-10-7 gapmer compound, both target mir-15b. The oligomeric compounds ISIS Number 327951 (SEQ ID NO: 369), a uniform 2′-MOE compound, and ISIS Number 345411 (SEQ ID NO: 369), a 2′-MOE 5-10-7 gapmer compound, both target mir-15a-1. Oligomeric compounds ISIS Number 129686 ([…]; SEQ ID NO: 901), and ISIS Number 129691 ([…]; SEQ ID NO:902), both universal scrambled controls, as well as ISIS Number 116847 ([…]; SEQ ID NO: 844) targeting an unrelated gene, PTEN, were used as negative controls. ISIS Numbers 129686, 129691, and 116847 are phosphorothiated 2′-MOE 5-10-5 gapmers, and all cytosines are 5-methylcytosines. T47D cells (seeded in 12-well plates) were treated with these oligomeric compounds, and RNA was isolated from the treated cells by lysing in 1 mL TRIZOL™ (Invitrogen) and total RNA was prepared using the manufacturer's recommended protocols. To assess the effects of these compounds on expression of the mir-15a or mir-15b pri-miRNA molecules, real-time RT-PCR analysis was performed using either the primer/probe set specific for the mir-15a pri-miRNA molecule described above, or a primer probe set specific for the mir-15b pri-miRNA molecule: ISIS 339320 ([…]; SEQ ID NO: 903) was used as the forward primer for the mir-15b pri-miRNA, ISIS 339321 ([…] ACTGT; SEQ ID NO: 904) was used as the reverse primer for the mir-15b pri-miRNA, and ISIS 339322 ([…]; SEQ ID NO: 905) was used as the probe. Total RNA was quantified using RiboGreen™ RNA quantification reagent (Molecular Probes, Inc. Eugene, Oreg.), expression levels observed for each target were normalized to 5.8S rRNA, and values are expressed relative to the untreated control. Inhibition of expression of the mir15a or mir-15b pri-miRNA molecules upon treatment with these oligomeric compounds is was assessed and expressed as a percentage of RNA levels in untreated control cells.
Using the real-time RT-PCR methods described, the expression levels of the mir-15a pri-miRNA were compared in T47D cells treated with the nested series of uniform 2′-MOE oligomeric compounds, targeting and spanning the entire length of the mir-15a pri-miRNA. The region encompassing the mir-15a primary transcript (the complement of nucleotides 31603159 to 31603468 of GenBank Accession number NT—024524.13; AAATAATTATG […]) is incorporated herein as SEQ ID NO: 906. ISIS Number 356215 (SEQ ID NO: 879) targets a region flanking and immediately 5′ to the predicted 5′ Drosha cleavage site in the mir-15a pri-miRNA. ISIS Number 356218 (SEQ ID NO: 881) targets aregion in the loop of the mir-15a pri-miRNA. ISIS 356227 (SEQ ID NO: 883) targets a region flanking and immediately 3′ to the predicted 3′ Drosha cleavage site in the mir-15a pri-miRNA. Additionally, oligomeric compound ISIS 327951 (SEQ ID NO: 369), a uniform 2′-MOE compound targeting the mature mir-15a-1 miRNA, was tested for comparison. Oligomeric compounds ISIS 327901 (SEQ ID NO: 319) targeting the mature mir-143 miRNA; ISIS 129690, ([…]; SEQ ID NO: 907), a phosphorothioate 5-10-5 MOE gapmer used as a universal scrambled control; and ISIS 116847 ([…]; SEQ ID NO: 844), a uniform 5-10-52′-MOE gapmer targeting an unrelated gene, PTEN, were used as negative controls. Using the transfection methods previously described, T47D cells were treated with 100 nM of each of these oligomeric compounds. […]

[1] = system: preadipocytes / differentiating adipocytes; assay: Adipocyte differentiation assay, markers taken together; conditions: differentiating adipocytes, % of UTC (Table 55)
Procedure: Oligomeric compounds of the invention are tested for their effects on preadipocyte differentiation. […] For the other adipocyte differentiation markers assayed, an oligomeric compound targeted to PPAR-γ, also known to inhibit adipocyte differentiation, may be used as a positive control.
Cells are transfected as described herein. […] Untreated control cells receive LIPOFECTIN™ only.
After the cells have reach confluence (approximately three days), they are exposed for an additional three days to differentiation medium (Zen-Bio, Inc., Research Triangle Park, N.C.) containing a PPAR-γ agonist, IBMX, dexamethasone, and insulin. Cells are then fed adipocyte medium (Zen-Bio, Inc.), which is replaced at 2 or 3 day intervals.
For assaying adipocyte differentiation, expression of the four hallmark genes, HSL, aP2, Glut4, and PPARγ, as well as triglyceride (TG) accumulation and leptin secretion were measured in adipocytes transfected with the uniform 2′-MOE phosphorothioate (PS) oligomeric compounds previously described. Cells are lysed on day nine post-transfection, in a guanadinium-containing buffer and total RNA is harvested. Real-time PCR is performed (Applied Biosystems, Prism 7700) on the total RNA using the following primer/probe sets for the adipocyte differentiation hallmark genes: (aP2): forward 5′-GGTGGTGGAATGCGTCATG-3′ (SEQ ID NO: 746), reverse 5′-[…]-3′ (SEQ ID NO: 747), probe 5′-FAM-[…]-TAMRA-3′ (SEQ ID NO: 748); (Glut4): forward 5′-GGCCTCCGCAGGTTCTG-3′ (SEQ ID NO: 749), reverse 5′-[…]-3′ (SEQ ID NO: 750), probe 5′-FAM-[…]-TAMRA-3′ (SEQ ID NO: 751); (HSL): forward 5′-ACCTGCGCACAATGACACA-3′ (SEQ ID NO: 752), reverse 5′-[…]-3′ (SEQ ID NO: 753), probe 5′-FAM-[…]-TAMRA-3′ (SEQ ID NO: 754); (PPAR-γ): forward 5′-[…]-3′ (SEQ ID NO: 755), reverse 5′-[…]-3′ (SEQ ID NO: 756), probe 5′-FAM-[…]-TAMRA-3′ (SEQ ID NO: 757). The amount of total RNA in each sample is determined using a Ribogreen Assay (Molecular Probes, Eugene, Oreg.), and expression levels of the adipocyte differentiation hallmark genes were normalized to total RNA. Leptin protein and triglyceride levels as well as mRNA levels for each of the four adipocyte differentiation hallmark genes are expressed relative to control levels (control=treatment with ISIS-29848 (SEQ ID NO: 737)).
In some embodiments, differentiating adipocytes were treated with uniform 2′-MOE phosphorothioate oligomeric compounds according to the methods described above, and the expression of the four hallmark genes, HSL, aP2, Glut4, and PPARγ, as well as triglyceride (TG) accumulation were measured. […] Undifferentiated adipocytes were also compared as a negative control. […] The effects of TNF-α, also known to inhibit adipocyte differentiation, were also measured.

Substance | expression of the IGFBP-1, PEPCK-c and follistatin marker genes (HepG2 cells; HepG2, 1 nM insulin) | levels of the mir-15a pri-miRNA molecule (mir-15a pri-miRNA) | other results
AACCGATTTCAAATGGTGCTAG (anti-miR; chemistry not fully specified) [ISIS 327913, uniform 2′-MOE PS; targets mir-29c] | increased expression of the IGFBP-1, PEPCK-c and follistatin marker genes |  | expression of the IGFBP-1, PEPCK-c and follistatin marker genes (HepG2 cells; HepG2, basal (no insulin)): increased expression of the IGFBP-1, PEPCK-c and follistatin marker genes
CACAAATTCGGATCTACAGGGTA (anti-miR; chemistry not fully specified) [ISIS 327949, uniform 2′-MOE PS; targets mir-10a] |  |  | expression of the IGFBP-1 and follistatin marker genes (HepG2 cells; HepG2, basal (no insulin)): increased expression of the IGFBP-1 and follistatin marker genes
CCAAGTTCTGTCATGCACTGA (anti-miR; chemistry not fully specified) [ISIS 327964, uniform 2′-MOE PS; targets mir-152] | increased expression of the IGFBP-1, PEPCK-c and follistatin marker genes |  | 
GAAAGAGACCGGTTCACTGTGA (anti-miR; chemistry not fully specified) [ISIS 327923, uniform 2′-MOE PS; targets mir-128b] | increased expression of the IGFBP-1, PEPCK-c and follistatin marker genes |  | 
GGGGTATTTGACAAACTGACA (anti-miR; chemistry not fully specified) [ISIS 327961, uniform 2′-MOE PS; targets mir-223] | increased expression of the IGFBP-1, PEPCK-c and follistatin marker genes |  | expression of the IGFBP-1 and follistatin marker genes (HepG2 cells; HepG2, basal (no insulin)): increased expression of the IGFBP-1 and follistatin marker genes
ISIS 356216: uniform 2′-MOE PS; SEQ ID NO: 880; targets mir-15a pri-miRNA (antisense eG*e[5mC]*eA*e[5mC]*e[5mC]*eT*eT*eT*eT*e[5mC]*eA*eA*eA*eA*eT*e[5mC]*e[5mC]*eA*e[5mC]*eA) [uniform 2′-MOE PS; targets mir-15a pri-miRNA] |  | stimulate an increase in levels of the mir-15a pri-miRNA molecule | 
ISIS 356218: uniform 2′-MOE PS; SEQ ID NO: 881; loop of the mir-15a pri-miRNA (antisense eT*eG*eG*e[5mC]*e[5mC]*eT*eG*e[5mC]*eA*e[5mC]*e[5mC]*eT*eT*eT*eT*e[5mC]*eA*eA*eA*eA) [uniform 2′-MOE PS; loop of the mir-15a pri-miRNA] |  | stimulate an increase in levels of the mir-15a pri-miRNA molecule | 
ISIS 356221: uniform 2′-MOE PS; SEQ ID NO: 882; targets mir-15a pri-miRNA (antisense eA*eG*e[5mC]*eA*e[5mC]*eA*eA*eT*eA*eT*eG*eG*e[5mC]*e[5mC]*eT*eG*e[5mC]*eA*e[5mC]*e[5mC]) [uniform 2′-MOE PS; targets mir-15a pri-miRNA] |  | stimulate an increase in levels of the mir-15a pri-miRNA molecule | 
ISIS 356227: uniform 2′-MOE PS; SEQ ID NO: 883; region immediately 3′ to 3′ Drosha cleavage site of mir-15a pri-miRNA (antisense eT*e[5mC]*e[5mC]*eT*eT*eG*eT*eA*eT*eT*eT*eT*eT*eG*eA*eG*eG*e[5mC]*eA*eG) [uniform 2′-MOE PS; region immediately 3′ to 3′ Drosha cleavage site of mir-15a pri-miRNA] |  | stimulate an increase in levels of the mir-15a pri-miRNA molecule; also recorded: stimulate the greatest increases in expression of the mir-15a pri-miRNA | 
ISIS 356229: uniform 2′-MOE PS; SEQ ID NO: 884; targets mir-15a pri-miRNA (antisense eA*eG*eA*eT*e[5mC]*eA*eG*eA*eT*e[5mC]*e[5mC]*eT*eT*eG*eT*eA*eT*eT*eT*eT) [uniform 2′-MOE PS; targets mir-15a pri-miRNA] |  | stimulate an increase in levels of the mir-15a pri-miRNA molecule | 
ISIS 356231: uniform 2′-MOE PS; targets mir-15a pri-miRNA (antisense eT*eT*e[5mC]*eA*eG*eA*eA*eG*eA*eT*e[5mC]*eA*eG*eA*eT*e[5mC]*e[5mC]*eT*eT*eG) |  | stimulate an increase in levels of the mir-15a pri-miRNA molecule | 
ISIS 356232: uniform 2′-MOE PS; targets mir-15a pri-miRNA (antisense eA*eA*eA*eT*eA*eT*eA*eT*eT*eT*eT*e[5mC]*eT*eT*e[5mC]*eA*eG*eA*eA*eG) |  | stimulate an increase in levels of the mir-15a pri-miRNA molecule | 
TGTAAACCATGATGTGCTGCTA (anti-miR; chemistry not fully specified) [ISIS 327927, uniform 2′-MOE PS; targets mir-15b] |  | stimulate an increase in levels of the mir-15a pri-miRNA molecule | five markers of adipocyte differentiation [1]: increase in all five markers of adipocyte differentiation
